The subject of experiment [1] is children diagnosed as having autism. The experiment can be described thus: Fecal Chymotrypsin Test after secretin infusion in autistic children. It counts as in vivo, human. As to the method: In this experiment, 16 children diagnosed as having autism were administered the following Fecal Chymotrypsin Test in accordance with an embodiment of the invention. First, approximately 2 grams of stool were collected from each child and placed in a sterile container (although it is to be understood that any quantity of stool may be collected, as 2 grams of stool is not a required amount). Each stool sample was then analyzed using, e.g., an enzymatic photospectrometry analysis as is known by those skilled in the art, to determine the level of fecal chymotrypsin in the stool. Although the enzymatic photospectrophotometry process is preferred, any suitable conventional method may be used for measuring the fecal chymotrypsin levels. This measured chymotrypsin levels of the 16 autistic children are illustrated in FIG. 13.
After determining the chymotrypsin levels of the stools, each of these levels were compared with threshold chymotrypsin levels to determine if the child was likely to benefit from secretin administration. By way of example, with the fecal chymotrypsin tests of the stool samples being performed at 30EC, normal levels of chymotrypsin are deemed to lie above 8.4 U/gram, whereas pathologically abnormal levels are deemed to lie below 4.2 U/gram. In addition, chymotrypsin levels between 8.4 U/gram and 4.2 U/gram are considered equivocal, and further testing of the individual's fecal chymotrypsin levels over a period of time should be performed.
For each of the 16 autistic children tested, a preferred secretin infusion process according to the present invention was performed involving the administering of 1 U/kg of body weight of Secretin-Ferring for a period of nine months at intervals of approximately 6 weeks. […]
In this experiment, 37 autistic children with abnormal fecal chymotrypsin levels were administered secretin over the course of 6 months using the secretin infusion process described above. Their fecal chymotrypsin (FC) levels were measured weekly using the fecal chymotrypsin test described above.

In experiment [2] the test system is children diagnosed with ADHD. The experiment can be described thus: Required Ritalin level of ADHD children administered secretin. The class given is in vivo, human. To be noted: each of 5 ADHD children with pathologic FC level; 6 months post-secretin vs pre-secretin. As for the experimental part: A preferred secretin infusion process includes the initial step of prepping an arm of the candidate child with an IV injection of saline. A test dose of 1 U of Secretin-Ferring is then administered to the child. Approximately one minute after infusion, the child is examined for signs of allergic reaction including rash, increased heart rate, and increase of blood pressure. […] Subsequently, each child receives a 1 U/kg of body weight infusion of Secretin-Ferring approximately every 6 weeks for 9 months. It is to be understood that any commercially available form of secretin may be used.
In this experiment, the fecal chymotrypsin levels of 34 children diagnosed with ADHD were obtained using the fecal chymotrypsin test described above in Experiment 1, the levels of which are illustrated in FIG. 16. As shown, 32 children out of 34 children tested were determined to have sub-normal fecal chymotrypsin levels.
To determine the effect of secretin administration on ADHD children, 5 of the 24 children having a pathologic fecal chymotrypsin level were administered secretin using the secretin infusion process described above.

Setting [3] is: 6 Months Post-Secretin Administration, of 37 children, 0 pre-secretin.

secretin: in experiment [1] (setting [3]), the “# Autistic Children w/Equivocal FC levels” value is 2 and the “# Autistic Children w/normal FC levels” value is given as 34. In addition, the “fecal chymotrypsin level post-secretin administration compared with pre-secretin” value in experiment [1] (each of 16 autistic children, approximately one week after first secretin infusion, 1 U/kg IV) is “increased”. Moreover, the “level of Ritalin (mg) needed to remain at the same functional level” value in experiment [2] was “significant changes”.

(Values after patent US20060182728A1, “Methods for treating pervasive development disorders” (priority 1999, published 2006).)
